Tests used:
[1] = Reconstitution time of lyophilized preparation (with vs without annealing step); type: physicochemical; conditions: for reconstitution time of lyophilized preparation: lyophilized preparation (20 mg/mL, pH-adjusting agent only) prepared with an annealing step vs without, water for injection 10 mL, moderate shaking, FIG. 8
Text: After a drug solution had been prepared in a manner similar to that described above, the solution was charged into a container and frozen under the conditions shown in Table 2, and then was lyophilized in a manner similar to that described above, followed by measurement of the time required for reconstitution (hereinafter the time may be referred to as a “reconstitution time”). The state observed about 30 seconds after injection of a liquid for reconstitution is shown in FIG. 2 (method without annealing step) or FIG. 3 (method with an annealing step).
Lyophilization was performed under varied annealing conditions (e.g., temperature and maintenance time for an annealing step) as shown in Table 3. […] Reconstitution time was measured through the following procedure: after completion of lyophilization, water for injection was added to a vial in an amount equal to that of the liquid charged into the vial, followed by moderate shaking, and the time required for complete dissolution of the content of the vial was measured.
Water for injection (10 mL) was added to a vial, followed by moderate shaking, and the time required for complete dissolution of the content of the vial was measured.

[2] = system: drug-resistant Gram-positive bacteria such as methicillin-resistant staphylococci, penicillin-resistant pneumococci, and vancomycin-resistant enterococci; conditions: cited from earlier work
[3] = DSC of frozen product of compound-containing aqueous solution (glass transition temperature); type: physicochemical; conditions: frozen product of Table 1 formulation
Text: The temperature of the annealing step may be determined on the basis of the glass transition temperature of the frozen product of the compound (1)-containing aqueous solution obtained through the freezing step. Specifically, the temperature of the frozen product is elevated to a level equal to or higher than the glass transition temperature thereof, and then maintained for a predetermined period of time. The glass transition temperature of the frozen product may be determined through, for example, DSC of the frozen product, and this DSC may be performed according to a generally employed method. The glass transition temperature of frozen products is varied in accordance with, for example, the compositional proportions of ingredients of starting solutions for the products. Therefore, different frozen products are subjected to DSC for determination of the glass transition temperature thereof.
For example, in the DSC chart of the frozen product containing compound (I) and pH-adjusting agents having a formulation shown in Table 1, the peak corresponding to the glass transition temperature of the frozen product rises at about −14.0° C. (FIG. 5). […] Therefore, when the annealing step is performed at a temperature equal to or higher than this temperature, the annealing effect is expected to be attained.

drug-resistant bacteria = conditions: cited from earlier work

In the case of CC1COc2c(N3CCN(C)CC3)c(F)cc3c(=O)c(C(=O)O)cn1c23 (racemic) [ofloxacin, (±)-9-fluoro-2,3-dihydro-3-methyl-10-(4-methyl-1-piperazinyl)-7-oxo-7H-pyrido[1,2,3-de][1,4]benzoxazine-6-carboxylic acid], the “reconstitution time of lyophilized preparation” value [1] is reported as “reduced reconstitution time”.
In the case of COc1c(N2CC[C@@H](C3(N)CC3)C2)ccc2c(=O)c(C(=O)O)cn([C@@H]3C[C@@H]3F)c12 [compound (I), 7-[3-(R)-(1-aminocyclopropyl)pyrrolidin-1-yl]-1-[2-(S)-fluoro-1-(R)-cyclopropyl]-1,4-dihydro-8-methoxy-4-oxoquinoline-3-carboxylic acid], the antibacterial activity [2] is listed as “high antibacterial activity”, the “temperature at which the glass transition peak starts (DSC)” value [3] is listed as “about −17 °C” and the “reconstituting property of lyophilized cake” value ([1]; Table 1 formulation, frozen product maintained between glass transition temperature and a temperature at which it does not thaw) is listed as “improved reconstituting property”.
In the case of COc1c(N2CC3(CC3)[C@](C)(N)C2)c(F)cc2c(=O)c(C(=O)O)cn([C@@H]3C[C@@H]3F)c12 [compound (II), (+)-7-[(7S)-7-amino-7-methyl-5-azaspiro[2.4]heptan-5-yl]-6-fluoro-1-[(1R,2S)-2-fluoro-1-cyclopropyl]-1,4-dihydro-8-methoxy-4-oxo-3-quinolinecarboxylic acid hemihydrate], the antibacterial activity (drug-resistant bacteria) is listed as “excellent antibacterial activity” and the “reconstitution time of lyophilized preparation” value [1] is listed as “reduced reconstitution time”.
In the case of C[C@H]1COc2c(N3CCN(C)CC3)c(F)cc3c(=O)c(C(=O)O)cn1c23 [levofloxacin, (−)-(S)-9-fluoro-2,3-dihydro-3-methyl-10-(4-methyl-1-piperazinyl)-7-oxo-7H-pyrido[1,2,3-de][1,4]benzoxazine-6-carboxylic acid hemihydrate], the “reconstitution time of lyophilized preparation” value [1] is reported as “reduced reconstitution time”.
For N[C@@H]1CN(c2c(F)cc3c(=O)c(C(=O)O)cn([C@@H]4C[C@@H]4F)c3c2Cl)CC12CC2 [sitafloxacin, (−)-7-[(7S)-7-amino-5-azaspiro[2.4]heptan-5-yl]-8-chloro-6-fluoro-1-[(1R,2S)-2-fluoro-1-cyclopropyl]-1,4-dihydro-4-oxo-3-quinolinecarboxylic acid sesquihydrate], the “reconstitution time of lyophilized preparation” value [1] was “reduced reconstitution time”.
